Test results reported in patent US20030162834A1, “Natural physiologically active material effective on fish diseases and fish food containing the material” (priority 1998, published 2003).

Key:
Kudoa shiomitsui spores = assay: Trial 2: in vitro immersion in octanoic acid seawater; format: cell-based; conditions: 800 PPM octanoic acid added to seawater, 20 degrees centigrade
Description: (§1) 800 PPM of octanoic acid was added to seawater and dissolved therein maximally. In this seawater solution, Bivagina tai larvae sampled from the gill of red sea bream, Heteraxine heterocerca larvae sampled from the gill of young yellowtail, Benedenia seriolae adults sampled from the body surface of young yellowtail, Kudoa shiomitsui spores sampled from the heart of tiger puffer, and Pseudocaligus fugu adults sampled from the body surface of tiger puffer were immersed under condition of 20 degrees centigrade, followed by observation. As control, another group was managed using seawater alone. More than 30 individuals of parasites were transferred to each group.

[1] = system: Benedenia seriolae adults; assay: as above; format: cell-based; conditions: 800 PPM octanoic acid added to seawater, 20 degrees centigrade
Description: as §1

[2] = system: Heteraxine heterocerca larvae; assay: as above; format: cell-based; conditions: 800 PPM octanoic acid added to seawater, 20 degrees centigrade
Description: as §1

[3] = system: Pseudocaligus fugu adults; assay: as above; format: cell-based; conditions: 800 PPM octanoic acid added to seawater, 20 degrees centigrade
Description: as §1

Bivagina tai larvae = assay: as above; format: cell-based; conditions: 800 PPM octanoic acid added to seawater, 20 degrees centigrade
Description: as §1

Cryptocaryon irritans [4] = assay: Trial 4: oral octanoic acid, Cryptocaryon irritans challenge trial on red sea bream; format: in vivo; conditions: 5 g octanoic acid per 1 kg pellets
Description: Fish tested: Red sea bream weighing approximately 9.8 g in average.
(§2) Trial groups: Two groups, i.e., an octanoic-acid added group in which fish were fed diets added with octanoic acid, and a control group in which fish were fed diets not added with octanoic acid. The feeding rate was 3% of fish weight/day for each group.
Trial diets: The diets added with octanoic acid were prepared by spraying 5 g of octanoic acid to 1 kg of commercially available pellets for red sea bream. The control group fish were fed the commercially available pellets for red sea bream.
Challenge trial: Each 30 pieces of fish from among a shoal of fish, in which no diseases such as Cryptocaryon irritans infection were found, were put in a 100-liter water tank, and were fed the respective trial diets. After 5 days, approximately 2000 individuals of ([…] theronts) of Cryptocaryon irritans were put in each water tank to infect the fish while water flow was stopped for 1 hour. Then, bleeding was continued for 15 days. During the trial period, the water temperature was in the range of 22.5-23.2 degrees centigrade and the water was exchanged at 20 cycles/day.
Evaluation was made by sampling 5 pieces of fish from each group after 3 days from the start of the challenge, comparing the number of parasites attaching to the gill and the body surface of each infected fish, and comparing mortality of the fish during the trial period between the respective groups.

Cryptocaryon irritans [5] = assay: Trial 7: vitamin C enhancement trial on red sea bream; format: in vivo; conditions: oral
Text: Fish tested: Red sea bream weighing approximately 15.8 g in average.
as §2, with “Three” for “Two”, “acid, an octanoic-acid added/vitamin-C enhanced group in which fish were fed diets added with both octanoic acid and vitamin C,” for “acid,”
Trial diets: The diets added with octanoic acid were prepared by spraying 2.5 g of octanoic acid to 1 kg of commercially available pellets for red sea bream. The diets added with both octanoic acid and vitamin C were prepared by spraying 200 mg of vitamin C, dissolved in water, to 1 kg of the above diets added with octanoic acid. The control group fish were fed the commercially available pellets for red sea bream.
Challenge trial: Each 30 pieces of fish from among a shoal of fish, in which no diseases such as Cryptocaryon irritans infection were found, were put in a 100-liter water tank, and were fed the respective trial diets. After 5 days, approximately 2000 individuals of theronts of Cryptocaryon irritans were put into each water tank to infect the fish while water flow was stopped for 1 hour. Then, bleeding was continued for 60 days. During the trial period, the water temperature was 24+−1 degrees centigrade and the water was exchanged at 20 cycles/day.
Evaluation was made by sampling 5 pieces of fish from each group after 18 and 31 days from the start of the challenge, comparing the number of the parasites attaching to the gill of each fish, and comparing mortality of the fish during the trial period between the respective groups.

[6] = system: Heterobothrium okamotoi larvae; assay: Immersion of Heterobothrium okamotoi larvae in seawater with dissolved octanoic acid; format: cell-based; conditions: seawater in which octanoic acid was dissolved
Description: Larvae of parasites Heterobothrium okamotoi were immersed in seawater in which octanoic acid was dissolved. […] Octanoic acid is an edible natural material contained in palm oil, butter and nuts, and has been used in a drug applied to dyspeptics, for example.

[7] = Growth trial: tiger puffer fed basal diet supplemented with 0.5% octanoic acid; format: in vivo
Description: The inventors conducted trials using tiger puffer to test whether the octanoic acid adversely affects growth of fish. Two trial groups were prepared; i.e., one group fed the basal diet supplemented with 0.5% of octanoic acid (5 g of octanoic acid added for 1 kg of diet), and the other group fed the basal diet alone. Trial conditions were that 50 pieces of tiger puffer for each group were put in a 1-t water tank, and the puffs were fed twice per day, i.e., in the morning and evening. A bleeding trial period was 45 days and the water temperature was 25+−1 degrees centigrade during the trial period.

Cryptocaryon irritans [8] = assay: Trial 1: in vitro immersion of theronts in fatty acid seawater solutions; format: cell-based; conditions: 0.5 mM in seawater, 20 degrees centigrade; listed as C8
Description: For Cryptocaryon irritans, fatty acids having carbon number C2, C4 and C6-C10 were each dissolved in seawater at 0.5 mM concentration, and theronts of Cryptocaryon irritans were immersed in the seawater solutions. After 1 hour from the start of immersion, the efficacy of the fatty acids was investigated by counting the number of dead theronts. More than 200 individuals of parasites were transferred to each group.
For any of the groups, the trial was made under condition of 20 degrees centigrade.

## CCCCCCCC(=O)O [octanoic acid]
Kudoa shiomitsui spores
  time until burst image of the spores was observed: approximately 1 hour
[1]
  contraction of parasites: became contracted apparently
  time until contraction occurred: approximately 10 minutes
[2]
  contraction of parasites: became contracted apparently
  time until contraction occurred: approximately 10 minutes
[3]
  contraction of parasites: no contraction
  time until reduction in swimming activity was found: approximately 1 hour
Bivagina tai larvae
  contraction of parasites: became contracted apparently
  time until contraction occurred: approximately 10 minutes
Cryptocaryon irritans [4]
  parasites on gill and body surface after 3 days from the challenge: no parasites were found
Cryptocaryon irritans [4]; 15 days
  parasites at the end of the trial: no parasites were found
Cryptocaryon irritans [4]; 15 days, control all dead at the 8-th day
  fish mortality during the trial: no fish died
Cryptocaryon irritans [5]; 2.5 g octanoic acid per 1 kg pellets (with or without 200 mg vitamin C per kg)
  number of parasites attaching to the gill after 18 and 31 days: apparently fewer
Cryptocaryon irritans [5]; 2.5 g octanoic acid per 1 kg pellets (with or without 200 mg vitamin C per kg), 60 days
  fish mortality during the trial: all dead
Cryptocaryon irritans [5]; 2.5 g octanoic acid per 1 kg pellets
  time at which the fish began dying, versus control: later
[6]
  effect on larvae: died due to the occurrence of structural damages (such as vacuolation)
[7]; continued for succeeding seven months
  died fish: no died fish
[7]; in vivo
  adverse effects on puffer growth: adverse effects on the puffer growth were not found
  content of octanoic acid in the edible muscle: no octanoic acid was detected
Cryptocaryon irritans [8]
  emergence of dead theronts: emerged earliest
